Measured values reported in US20230310374A1, “COMPOSITIONS AND METHODS FOR TREATING HEADACHE OR FACIAL PAIN” (priority 2021, published 2023).
Read-outs that look alike come from different tables or passages of the source.

Tests used:
Human 5-HT1B receptor = target: T1, Human 5-HT1B receptor (Homo sapiens, UniProt P28222); assay: Hit Hunter cAMP secondary messenger assay, Gi agonist mode; format: cell-based; settings: for Curve Top (% activation) / Emax: relative to 5-HT MAX control
T1 construct: host or cells: CHO-K1 (hamster), stably transfected; cAMP Hunter cell line
Text: Methods: cAMP Secondary Messenger Pathway Assay Method.
Hit Hunter® cAMP assays were used to monitor the activation of a GPCR via Gi and Gs secondary messenger signaling in a homogenous, non-imaging assay format using DiscoverX's Enzyme Fragment Complementation (EFC) with β-galactosidase (β-Gal) as the functional reporter. The enzyme is split into two complementary portions: EA for Enzyme Acceptor and ED for Enzyme Donor. ED is fused to cAMP and in the assay competes with cAMP generated by cells for binding to a cAMP-specific antibody. Active β-Gal is formed by complementation of exogenous EA to any unbound EDcAMP.
cAMP Hunter cell lines were expanded from freezer stocks according to standard procedures. Human 5-HT1B receptor-mediated cAMP signaling was evaluated in stably transfected hamster-derived CHO-K1 cells. Cells were seeded in a total volume of 20 μL into white walled, 384-well microplates and incubated at 37° C. overnight. cAMP modulation was determined using the DiscoverX HitHunter cAMP XS+ assay.
For Gi agonist determination, cells were incubated with sample in the presence of 15 mM forskolin to induce response. Media was aspirated from cells and replaced with 10 μL HBSS/10 mM Hepes. Intermediate dilution of sample stocks was performed to generate 4× sample in assay buffer. 5 μL of 4× sample plus 5 μL of 4× forskolin was added to cells and incubated at 37° C. for 30 minutes. Final assay vehicle concentration was 1%. After compound incubation, assay signal was generated through incubation with 20 μL cAMP XS+ED/CL lysis cocktail for one hour followed by incubation with 20 μL cAMP XS+EA reagent for three hours at room temperature. Microplates were read following signal generation with a PerkinElmer Envision™ instrument for chemiluminescent signal detection.
Compound activity was analyzed using CBIS data analysis suite (ChemInnovation, CA). For Gi agonist mode assays, percentage activity is calculated using the following formula: % Activity=100%×(1−(mean RLU of test sample−mean RLU of MAX control)/(mean RLU of vehicle control−mean RLU of MAX control)).
The same human 5-HT1B receptor functional agonism assay as described above was used in a separate experiment.

mice [1] = settings: cited from earlier work
humans = settings: cited from earlier work
rats = settings: cited from earlier work
[2] = tested on: female mice exposed to stress and sodium nitroprusside (SNP); assay: Stress plus sodium nitroprusside (SNP)-induced migraine mice model, von Frey facial withdrawal score; format: in vivo, C57BL/6j mice
Procedure: To evaluate the prophylactic and acute/abortive treatment effects of single administration of 5-OH-DMT to female mice exposed to stress and sodium nitroprusside (SNP) as a model of stress-primed migraine pain.
C57BL/6j mice (7-8 weeks, female) were acclimated for 1 week prior to the experiment. Mice were kept in groups of 4-5 animals per cage in a housing room with temperature maintained at 21-23° C. and 40-70% relative humidity, on a 12/12 h light:dark cycle. Chow and water were available ad libitum except during testing. […] On Day 10, von Frey testing was conducted again to confirm that mechanical withdrawal scores were similar across naïve and stress-exposed mice. Stress-exposed animals were randomized to treatment groups based on body weight and facial mechanical withdrawal score. Then, each animal was administered a 1st intraperitoneal (i.p.) injection of 5-OH-DMT (dissolved in 0.9% sterile saline and administered at 3, 10 or 30 mg/kg in a volume of 10 ml/kg) or vehicle.
On Day 11, at 24 h following the 1st injection, vehicle or 0.1 mg/kg sodium nitroprusside (SNP) was given i.p. and facial mechanical withdrawal scores were assessed 3 hours later to confirm establishment of a stress+SNP-induced hypersensitive state in Day 10 vehicle-treated animals (Groups 2-6) or, in Day 10 test article-treated […] (Groups 7-9), assess the prophylactic effect of compound administration. On Day 12, at 23 hours after vehicle or SNP injection, each animal was administered a 2nd i.p. injection of vehicle or 5-OH-DMT or sumatriptan (acute treatment positive control animals received vehicle on Day 10). One hour later, facial withdrawal scores were assessed to evaluate acute effects of treatments (Groups 2-6) or durability of prophylactic effects (Groups 7-9).
Mice were allowed to acclimate to the testing cage for 60 minutes each day before the test. To assess pain-like behaviors induced by noxious mechanical stimulation applied on the vibrissal pad (orofacial area), the mouse was placed in a small cage with a metal mesh ceiling and a wood bottom (10 cm×5 cm×5 cm). The semiparametric scoring system used to evaluate the response of the animal to the mechanical stimulation was described in detail by Vos et al. (1994). Mechanical stimulation delivered by a von Frey hair with the bending force of 0.07 g was applied bilaterally to the vibrissal pad. […] The summated score of these 8 trials was counted as the animal's response score. […]

mice [3] = settings: cited from earlier work; remark: listed apart in the source

T1 sequence (P28222 whole entry): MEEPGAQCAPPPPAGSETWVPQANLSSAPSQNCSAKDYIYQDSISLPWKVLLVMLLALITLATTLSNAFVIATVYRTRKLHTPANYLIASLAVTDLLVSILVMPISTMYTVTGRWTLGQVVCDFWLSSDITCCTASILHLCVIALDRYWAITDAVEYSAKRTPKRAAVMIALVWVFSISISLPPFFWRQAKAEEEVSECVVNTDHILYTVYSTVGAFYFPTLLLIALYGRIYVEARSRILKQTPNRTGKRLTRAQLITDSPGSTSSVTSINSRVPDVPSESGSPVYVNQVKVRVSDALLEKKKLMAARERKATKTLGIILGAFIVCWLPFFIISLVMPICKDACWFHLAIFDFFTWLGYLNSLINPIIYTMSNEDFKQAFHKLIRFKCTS

For NCCc1c[nH]c2ccc(O)cc12 [5-HT, serotonin, reference compound], the “Curve Top (% activation)” value (Human 5-HT1B receptor; Study #1) was 100.22%, the “Curve Top (% activation)” value (Human 5-HT1B receptor; Study #2) was 107.54% and the “agonist activity at human 5-HT1B receptors” value (from here on “agonist activity”) (Human 5-HT1B receptor; first experiment (Study #1)) was “full agonist activity”. For the same compound, the “agonist activity” value (Human 5-HT1B receptor; second experiment (Study #2)) was “full agonist activity”.
For COc1ccc2[nH]cc(CCN(C)C)c2c1 [5-MeO-DMT, 5-methoxy-N,N-dimethyltryptamine], the “head twitch response in mice” value (mice [1]; indicative of in vivo 5-HT2A receptor activation) is listed as “induces the head twitch response”, the “dose eliciting mouse head-twitch response” value (mice [1]; mice, i.p. or s.c.) is listed as no less than 10 mg/kg and the “time of initial effects” value (humans; insufflation of 10 mg) is listed as 3 to 4 min. The “time of termination of effects” value (humans; insufflation of 10 mg) was 60 to 70 min, the “dose range with psychoactive effects” value (humans; intravenous) was 0.25 to 3.1 mg and the “dose with psychoactive effects” value (humans; oral, after pretreatment with a monoamine oxidase inhibitor (e.g., harmaline)) was 10 to 25 mg. For the same compound, the “dose with psychoactive effects” value (humans; oral, encapsulated) was 30 mg, the “dose range with psychoactive effects” value (humans; smoked) was 6 to 30 mg and the “dose with psychoactive effects” value (humans; sublingual) was roughly 10 mg. The acute analgesic effects (rats) was “exhibited acute analgesic effects”.
With CN(C)CCc1c[nH]c2ccc(O)cc12 [5-OH-DMT, 5-hydroxy-N,N-dimethyltryptamine] the EC50 (Human 5-HT1B receptor) was no more than 1 nM, the Emax (Human 5-HT1B receptor; Study #1, read-out: Maximal activation (%)) was 104% and the “Curve Top (% activation)” value (Human 5-HT1B receptor; Study #2) was 100.41%. For the same compound, the “agonist activity” value (Human 5-HT1B receptor; first experiment (Study #1)) was “full agonist activity”, the Emax (Human 5-HT1B receptor; read-out: Maximal activation (%), Study #2) was 96.7% and the “agonist activity” value (Human 5-HT1B receptor; second experiment (Study #2)) was “full agonist activity”. For the same compound, the “facial hypersensitivity vs vehicle (G2), prophylactic treatment” value ([2]; 30 mg/kg i.p. on Day 10, 24 h before SNP, tested Day 11, 3 h after SNP (G9)) was “significantly reduced facial hypersensitivity”, the “facial hypersensitivity vs vehicle (G2), durability of prophylactic effect” value ([2]; 30 mg/kg i.p. on Day 10, tested Day 12 (G9)) was “significantly reduced facial hypersensitivity” and the “facial hypersensitivity vs vehicle (G2), acute treatment” value ([2]; 30 mg/kg i.p. on Day 12, tested 1 h after injection #2 (G6)) was “significantly reduced facial hypersensitivity”. For the same compound, the “head twitch response ED50” value (mice [1]; mice, subcutaneous) was 15 mg/kg, the “duration of short-lived aftereffects” value (humans; insufflation of 40 mg) was “up to 90 minutes” and the “time of initial effects” value (humans; insufflation of 40 mg) was 5 min. For the same compound, the “acute anti-inflammatory and analgesic effects” value (mice [3]) was “exhibited acute anti-inflammatory and analgesic effects”.
In the case of CNS(=O)(=O)Cc1ccc2[nH]cc(CCN(C)C)c2c1 [sumatriptan, reference compound], the “facial hypersensitivity vs vehicle (G2), acute treatment” value ([2]; sumatriptan 1 mg/kg i.p. on Day 12, tested 1 h after injection #2 (G3)) is reported as “significantly reduced facial hypersensitivity”.
